{"source": "patent US9534059B2", "about": "“TIKI inhibitors” (Children's Medical Center Corporation, priority 2012, dated 2017)", "assay_type_in_all_cases": "in vivo", "key": {"Tiki1 [1]": {"molecular_target": "T1, Tiki1 (Xenopus tropicalis, UniProt F6PTN1)", "T1 construct": "Thus the endogenous Tiki1 in the Organizer acts in both Wnt-producing and Wnt-responding cells; endogenous in cells; host or cells: Xenopus embryos (dorsal blastomeres / organizer)", "T1 sequence (F6PTN1 24-480)": "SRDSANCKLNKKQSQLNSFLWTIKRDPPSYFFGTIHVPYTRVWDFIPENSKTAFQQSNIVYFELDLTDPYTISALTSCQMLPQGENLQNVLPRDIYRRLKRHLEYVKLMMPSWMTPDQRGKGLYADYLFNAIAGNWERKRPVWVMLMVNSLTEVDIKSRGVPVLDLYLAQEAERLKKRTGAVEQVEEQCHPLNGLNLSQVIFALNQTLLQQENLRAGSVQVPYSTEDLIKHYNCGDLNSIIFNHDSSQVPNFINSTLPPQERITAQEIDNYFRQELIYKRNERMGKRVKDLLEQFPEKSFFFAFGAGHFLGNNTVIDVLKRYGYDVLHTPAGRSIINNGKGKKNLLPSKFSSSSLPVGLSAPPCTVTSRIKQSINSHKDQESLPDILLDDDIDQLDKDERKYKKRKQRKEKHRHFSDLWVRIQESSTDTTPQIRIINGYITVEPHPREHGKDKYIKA", "assay": "Whole mount in situ hybridization of organizer gene expression in MO-injected embryos (FIGS. 3D and 3F)", "method": "(D) Tiki1 is required for the head organizer. Mid-gastrula embryos (stage 10.5-11) were examined by whole mount in situ hybridization.\n(F) Tiki1MO reduces Goosecoid expression in prechordal plate at stage 13. 20 ng of control MO, Tiki1MO or Tiki1MO plus 50 pg of HA*Tiki1 mRNA were injected into two dorsal blastomeres at the 8-cell stage. Injected embryos were subjected to whole mount in situ hybridization with the Gsc probe at stage 13 (dorsal view with anterior up).\nProcedures for embryo manipulation, reverse transcription PCR and in situ hybridization were performed as previously described (Tamai et al., 2000). The arrayed Xenopus tropicalis full length cDNAs (Voigt et al., 2005) were used for the screening as performed previously (Kato et al., 2002). cDNA pools (in the CS107 vector) that contain 96 independent clones were transcribed in vitro using SP6 polymerase, and the resulting mRNA pools were injected into the dorsal side of the embryo at 4-cell stage at the dose of 10 ng RNA/embryo. Injected embryos were scored at stage 30-31 for enlarged or diminished anterior development. The positive pools were divided into smaller pools and the same process was repeated till a single cDNA was identified.\nThe following morpholino oligonucleotides were used: Tiki1 MO: 5′-[…]-3′ (SEQ ID NO:33); standard control MO: 5′-[…]-3′ (SEQ ID NO:34) (Gene Tools, LLC). RT-PCR primers for XTiki1: Forward, 5′-[…]-3′(SEQ ID NO:35), Reverse, 5′-[…]-3′(SEQ ID NO:36); human TIKI1: Forward, 5′-[…]-3′(SEQ ID NO:37), Reverse, 5′-[…]-3′(SEQ ID NO:38); human TIKI2: Forward, 5′-[…]-3′(SEQ ID NO:39), Reverse, 5′-[…]-3′(SEQ ID NO:40).\nFurther, injection of Tiki1MO in two dorsal blastomeres of 8-cell stage embryos suppressed the expression of head organizer genes including Goosecoid (Gsc), Lim1, Otx2, and Dkk1 in gastrula stage embryos (stages 10.5-11) (FIG. 3D and Table 1). […] HA*Tiki1 mRNA injection rescued the effect of Tiki1MO on all head organizer genes examined (FIG. 3D and Table 1). […] Consistently, Tiki1 inhibited Xwnt8 posterizing effect when both were co-expressed dorsally via injected plasmids, which zygotically express Tiki1 and Xwnt8, respectively, after mid-blastula transition (FIG. 3H)."}, "Tiki1 [2]": {"molecular_target": "T1, Tiki1", "assay": "Tiki1MO loss-of-function phenotype scoring in embryos", "settings": "20 ng into two dorsal blastomeres of 8-cell stage embryos", "method": "20 ng of control MO, Tiki1MO or Tiki1MO together with 50 pg of HA-Tiki1 mRNA was injected into two dorsal blastomeres at the 8-cell stage and the phenotype was scored at stage 42. Lateral view (left) and dorso-anterior view (right) are shown. Con, control.\n(C) Statistical data of the Tiki1MO phenotype.\n20 ng of Tiki1MO were injected into two dorsal blastomeres of 8-cell stage embryos. […] Co-injection of HA*Tiki1 mRNA rescued Tiki1MO phenotypes (FIGS. 3B and 3C). Supporting a role of Tiki1 in Wnt inhibition during head formation, Dkk1 mRNA injection also rescued Tiki1MO anterior deficiency phenotypes (FIG. 3E)."}, "Tiki1 [3]": {"molecular_target": "T1, Tiki1", "assay": "S01234-luciferase Wnt-responsive reporter assay in embryos with Tiki1MO knockdown", "settings": "20 ng MO in Xwnt8-producing or Xwnt8-responding cells", "method": "(C) The endogenous Tiki1 acts in Wnt-producing cells. Tiki1MO or control MO (20 ng) was co-injected with CS2+Xwnt8 DNA (40 pg) into a single dorsal blastomere at the 8-cell stage, while 501234-Luciferase or S0-luciferase (100 pg) plus TK-Renilla (1.25 pg) reporter DNAs were injected into a neighboring dorsal blastomere.\n(D) The endogenous Tiki1 acts in Wnt-responding cells. S01234-luciferase or S0-luciferease and TK-Renilla reporter DNAs were co-injected with Tiki1MO or control MO into a single dorsal blastomere, while CS2+Xwnt8 was injected into a neighboring dorsal blastomere. Luciferase readings were normalized to Renilla.\nThe same question was addressed complementarily via Tiki1MO knockdown in dorsal blastomeres whose progenies expresses Tiki1 endogenously. At the 8-cell stage, an Xwnt8 expression plasmid (which transcribes Xwnt8 after mid-blastula transition) plus the Tiki1MO (or control MO) were co-injected into a single blastomere (i.e., to knock down Tiki1 in Xwnt8-producing cells), and the S01234-luciferase plasmid was injected into the neighboring blastomere. Alternatively the Xwnt8 plasmid was injected into a single blastomere, and the 501234-luciferase reporter plus Tiki1MO or control MO was co-injected into the neighboring blastomere (i.e., to knock down Tiki1 in Xwnt8-responding cells)."}, "[4]": {"settings": "gene Chd, stage 10.5-11, 20 ng MO"}, "[5]": {"settings": "gene Dkk1, stage 10.5-11, 20 ng MO"}, "[6]": {"settings": "gene Gsc in prechordal plate, stage 13, 20 ng MO"}, "[7]": {"settings": "gene Gsc, stage 10.5-11, 20 ng MO"}, "[8]": {"settings": "gene Lim1, stage 10.5-11, 20 ng MO"}, "[9]": {"settings": "gene Otx2, stage 10.5-11, 20 ng MO"}, "[10]": {"settings": "gene Xnot, stage 10.5-11, 20 ng MO"}, "[11]": {"settings": "gene Xnr3, stage 10.5-11, 20 ng MO"}}}
{"substance": "Tiki1 MO: morpholino antisense oligonucleotide against Tiki1, 5′-CCAAATGATTACCATCATAGCTCAG-3′ (SEQ ID NO:33) (all phosphorodiamidate morpholino (PMO))", "values": [{"measurement": "Whole embryos displaying change in gene expression: Chd Absent, Percentage (%)", "setting": "Tiki1 [1]; [4]", "value": 0, "unit": "%"}, {"measurement": "Whole embryos displaying change in gene expression: Chd NC (No Change), Percentage (%)", "setting": "Tiki1 [1]; [4]", "value": 64, "unit": "%"}, {"measurement": "Whole embryos displaying change in gene expression: Chd Reduced, Percentage (%)", "setting": "Tiki1 [1]; [4]", "value": 36, "unit": "%"}, {"measurement": "Whole embryos displaying change in gene expression: Dkk1 Absent, Percentage (%)", "setting": "Tiki1 [1]; [5]", "value": 25, "unit": "%"}, {"measurement": "Whole embryos displaying change in gene expression: Dkk1 NC (No Change), Percentage (%)", "setting": "Tiki1 [1]; [5]", "value": 35, "unit": "%"}, {"measurement": "Whole embryos displaying change in gene expression: Dkk1 Reduced, Percentage (%)", "setting": "Tiki1 [1]; [5]", "value": 40, "unit": "%"}, {"measurement": "Whole embryos displaying change in gene expression: Gsc st.13 Absent, Percentage (%)", "setting": "Tiki1 [1]; [6]", "value": 35, "unit": "%"}, {"measurement": "Whole embryos displaying change in gene expression: Gsc st.13 NC (No Change), Percentage (%)", "setting": "Tiki1 [1]; [6]", "value": 33, "unit": "%"}, {"measurement": "Whole embryos displaying change in gene expression: Gsc st.13 Reduced, Percentage (%)", "setting": "Tiki1 [1]; [6]", "value": 32, "unit": "%"}, {"measurement": "Whole embryos displaying change in gene expression: Gsc Absent, Percentage (%)", "setting": "Tiki1 [1]; [7]", "value": 0, "unit": "%"}, {"measurement": "Whole embryos displaying change in gene expression: Gsc NC (No Change), Percentage (%)", "setting": "Tiki1 [1]; [7]", "value": 34, "unit": "%"}, {"measurement": "Whole embryos displaying change in gene expression: Gsc Reduced, Percentage (%)", "setting": "Tiki1 [1]; [7]", "value": 66, "unit": "%"}, {"measurement": "Whole embryos displaying change in gene expression: Lim1 Absent, Percentage (%)", "setting": "Tiki1 [1]; [8]", "value": 28, "unit": "%"}, {"measurement": "Whole embryos displaying change in gene expression: Lim1 NC (No Change), Percentage (%)", "setting": "Tiki1 [1]; [8]", "value": 18, "unit": "%"}, {"measurement": "Whole embryos displaying change in gene expression: Lim1 Reduced, Percentage (%)", "setting": "Tiki1 [1]; [8]", "value": 54, "unit": "%"}, {"measurement": "Whole embryos displaying change in gene expression: Otx2 Absent, Percentage (%)", "setting": "Tiki1 [1]; [9]", "value": 7, "unit": "%"}, {"measurement": "Whole embryos displaying change in gene expression: Otx2 NC (No Change), Percentage (%)", "setting": "Tiki1 [1]; [9]", "value": 33, "unit": "%"}, {"measurement": "Whole embryos displaying change in gene expression: Otx2 Reduced, Percentage (%)", "setting": "Tiki1 [1]; [9]", "value": 60, "unit": "%"}, {"measurement": "Whole embryos displaying change in gene expression: Xnot Absent, Percentage (%)", "setting": "Tiki1 [1]; [10]", "value": 0, "unit": "%"}, {"measurement": "Whole embryos displaying change in gene expression: Xnot NC (No Change), Percentage (%)", "setting": "Tiki1 [1]; [10]", "value": 87, "unit": "%"}, {"measurement": "Whole embryos displaying change in gene expression: Xnot Reduced, Percentage (%)", "setting": "Tiki1 [1]; [10]", "value": 13, "unit": "%"}, {"measurement": "Whole embryos displaying change in gene expression: Xnr3 Absent, Percentage (%)", "setting": "Tiki1 [1]; [11]", "value": 0, "unit": "%"}, {"measurement": "Whole embryos displaying change in gene expression: Xnr3 NC (No Change), Percentage (%)", "setting": "Tiki1 [1]; [11]", "value": 93, "unit": "%"}, {"measurement": "Whole embryos displaying change in gene expression: Xnr3 Reduced, Percentage (%)", "setting": "Tiki1 [1]; [11]", "value": 7, "unit": "%"}, {"measurement": "Injected embryos that developed anterior defects", "setting": "Tiki1 [2]", "value": "roughly 50%"}, {"measurement": "XWnt8 response of S01234-luciferase reporter", "setting": "Tiki1 [3]", "value": "enhanced"}]}
